According to patent publication US20070203066A1, “Compositions and methods for inhibiting cellular proliferation” (priority 2005, published 2007):
Non-standard residues stand in square brackets, D forms with d. Primed or numbered codes have the meaning given here. No end group written: not given here. Ida(3) = iminodiacetic acid linker, Lys side-chain amines bound to its two carboxyl groups; Ida(4) = iminodiacetic acid linker (dimerization linker bound to lysine side chain); ATA = not defined here; Ahx = NCCCCCC(=O)O

test system: HUVECs; format: cell-based; settings: 48 h
Procedure: HUVECs were routinely cultured to near confluency in EGM media (Clontech, Mountain View, California). The cells were trypsinized and plated in a 96-well plate at 5,000 cells per well per 100 μl EBM supplemented with 2% FCS and antibiotics. The cells were allowed to adhere to the plate for at least 12 hours. Then, bFGF at 10 ng/ml or VEGF at 5 ng/ml, and various concentrations of peptide, were added to the wells. The cells were cultured for 48 hours at 37 ° C. in a 5% CO2 atmosphere. Cell proliferation was determined using a bromo-deoxyuridine (BrdU) incorporation method as described by the manufacturer. Inhibition of cell proliferation was assessed by BrdU incorporation.

Molecule | IC50 [µM]
CC[C@H](C)[C@H](NC(=O)[C@H](C)NC(=O)[C@@H](NC(=O)[C@H](CCCNC(=N)N)NC(=O)[C@H](CCC(N)=O)NC(=O)[C@H](CCCNC(=N)N)NC(=O)[C@H](CCCNC(=N)N)NC(=O)[C@H](CCCNC(=N)N)NC(=O)[C@H](CCCNC(=N)N)NC(=O)[C@H](C)NC(C)=O)C(C)C)C(=O)N[C@@H](Cc1ccc(O)cc1)C(=O)N[C@@H](Cc1ccccc1)C(=O)N[C@@H](CCCCNC(=O)CN(CC(=O)NCCCC[C@H](NC(=O)[C@H](Cc1ccccc1)NC(=O)[C@H](Cc1ccc(O)cc1)NC(=O)[C@@H](NC(=O)[C@H](C)NC(=O)[C@@H](NC(=O)[C@H](CCCNC(=N)N)NC(=O)[C@H](CCC(N)=O)NC(=O)[C@H](CCCNC(=N)N)NC(=O)[C@H](CCCNC(=N)N)NC(=O)[C@H](CCCNC(=N)N)NC(=O)[C@H](CCCNC(=N)N)NC(=O)[C@H](C)NC(C)=O)C(C)C)[C@@H](C)CC)C(N)=O)C(=O)CCNC(=O)OC(C)(C)C)C(N)=O [Peptide 228] | < 10

same assay, conditions: HUVEC proliferation, bFGF at 10 ng/ml or VEGF at 5 ng/ml, 48 hours, BrdU incorporation; read-out: IC50 on HUVECs

Molecule | IC50 [µM]
KTKRKRKKQRVKIIAVQNM [compound 109] | > 30
386 (Ac-ARRRRQNVAIYFK-NH2; not fully specified (residue 13); also: homodimer via Ida linker on Lys13 side chain, Ida amine Boc) [compound 386] | < 10
260 (Ac-ARRR[dR]QRVAIIFK-NH2; not fully specified (residue 13); also: homodimer via Ida linker on Lys13 side chains) [compound 260] | < 10
229 (XHRRRQRVRIIF; Xaa = Acylated Histidine; Dimeric peptide wherein the C terminus of Phe in position 12 of one peptide chain is covalently bound to one of the amino groups of a Lysine linker and Phe of the remaining peptide chain is covalently bound to the other amino group of the Lysine linker.) [compound 229] | < 10
391 (Ac-ARRRRQAVNIYFK; not fully specified (residue 13, C-terminus); also: homodimer of residues 1-13 via Ida linker at Lys13 side chain) [compound 391] | < 10
KRKKQRVKIAYEEIF [compound 68] | > 30
KTKRKRKKQRVKIAYEEIFVQAA [compound 45] | 10 to 30
501 (Ac-PRRERQAVAIYFK; not fully specified (residue 13, C-terminus); also: homodimer via Ida linker on Lys13 side chain) [compound 501] | < 10
200 (Ac-RARRRQAVRIIF; also: dimer: C-terminal Phe bound to an amino group of a Lys linker, 2 chains per Lys) [compound 200] | < 10
232 (XRRRHQRVRIIF; Xaa = Acylated Histidine; Dimeric peptide wherein the C terminus of Phe in position 12 of one peptide chain is covalently bound to one of the amino groups of a Lysine linker and Phe of the remaining peptide chain is covalently bound to the other amino group of the Lysine linker.) [compound 232] | < 10
397 (Ac-ARRRRQAVYIYFK; not fully specified (residue 13, C-terminus); also: homodimer of residues 1-13 via Ida linker at Lys13 side chain) [compound 397] | < 10
KTKRKRAKQRVKIIFVQNM [compound 117] | < 10
259 (Ac-ARRRR[dQ]RVAIIFK-NH2; not fully specified (residue 13); also: homodimer via Ida linker on Lys13 side chains) [compound 259] | < 10
284 (Ac-RRRRHQHVAIYFK-NH2; not fully specified (residue 13); also: homodimer: Lys13 side chain bound to Ida linker) [compound 284] | < 10
252 (Ac-ARRRRQRVAIIF[dK]; not fully specified (C-terminus); also: homodimer: side chain of Lys13 bound to an Ida linker) [compound 252] | < 10
478 (Ac-PRRRTQAVAIYFK(Ida(3)); not fully specified (C-terminus); also: homodimer via Ida linker on Lys13 side chain) [compound 478] | 10 to 30
479 (Ac-PRRRVQAVAIYFK(Ida(3)); not fully specified (C-terminus); also: homodimer via Ida linker on Lys13 side chain) [compound 479] | 10 to 30
KRKRKKQRVKIIFV [compound 87] | < 10

Molecule | IC50 [µM]
359 (Ac-RRRHHQHVRIYFK(Ida(3))-NH2; also: homodimer via Ida linker on Lys13 side chain, Boc on Ida amine) [compound 359] | < 10
242 (Ac-RRHRRQHVRIIF; also: dimer via C-terminal Phe to Lys linker) [compound 242] | < 10
128 (KTKRKRKKQRVKI[Ahx][Ahx]IF; also: dimer: C-terminus of Phe17 of each chain bound to one amino group of a Lysine linker) [compound 128] | < 10
255 (Ac-ARRRRQRVA[dI]IFK-NH2; not fully specified (residue 13); also: homodimer via Ida linker on Lys13 side chains) [compound 255] | < 10
KTKRKRKKQRVKIAAEEIFVQNM [compound 49] | > 30
451 (Ac-NRRRRQAVAIVFK-NH2; also: homodimer via Ida linker at K13) [compound 451] | > 30
TKRKRKKQQRVKIAYEEIFV [compound 74] | > 30
358 (Ac-RRRRRQAVRIDIDFK; not fully specified) [compound 358] | > 30
440 (Ac-RRRRSQAVAIYFK(Ida(4)); not fully specified (C-terminus); also: homodimer via Ida linker at K13) [compound 440] | < 10
KTKRKRKAQRVKIIFVQNM [compound 116] | < 10
321 (XRRRRQHVAIYFK; Xaa = Acylated Histidine; The side chain of Lysine at position 13 is covalently bound to an Ida linker forming a homodimer of residues 1 through 13.) [compound 321] | < 10
457 (Ac-PRRRRQAVAIYFK(ATA); reading uncertain; also: homotrimer via Ata linker on Lys13 side chain) [compound 457] | > 30
287 (Ac-RRRRHQHVHIYFK-NH2; not fully specified (residue 13); also: homodimer via Ida linker on Lys13 side chain) [compound 287] | < 10
KTKRKRKKQRVKIAYEE [compound 18] | 10 to 30
KTKRKRKKQRVKIAYEEIFV [compound 15] | < 10
RKKQRVKIAYEEIFVKNM [compound 11] | > 30
KTKRKAKKQRVKIIFVQNM [compound 118] | < 10
